# Assay results published in patent US20090227671A1, “Prevention and treatment of atherosclerosis with lithospermate B” (Industry-Academic Cooperation Foundation, priority 2005, published 2009).
# Assays:
# Format in all cases: cell-based, Sprague-Dawley rats
# [1] = test system: vascular smooth muscle cells; assay: VSMC proliferation induced by PDGF-BB (LDH and MTT assays); details: LAB 1, 5, 10, 20, 30 μM pretreatment, PDGF-BB 24 hrs; LDH and MTT assays
# Source text: Vascular smooth muscle cells ('VSMC' hereinafter) were separated from thoracic aorta of a Sprague-Dawley weighted about 100-150 g by using collagenase digestion method and then cultured them according to the method disclosed in previous studies [[…], et al. Role of p44/p42 MAP kinase in the age-dependent increase in vascular smooth muscle cell proliferation and neointimal formation. Arterioscler Thromb Vasc Biol. Feb. 1 2003; 23(2):204-210.; Hamaguchi A, Kim S, Izumi Y, et al. Contribution of extracellular signal-regulated kinase to angiotensin II-induced transforming growth factor-beta1 expression in vascular smooth muscle cells. Hypertension. July 1999; 34(1):126-131]. […] The VSMC was treated in a culture medium not containing serum for 24 hrs prior to treatment with PDGF-BB, and the reaction according to the presence or absence of PDGF-BB was analyzed after pretreating with LAB or other reagents. […] The cells were then washed twice with PBS, lysed by using 0.5% Triton-X100, and then the activity of lactate dehydronase (LDH) was measured by using CytoTox-ONETM assay kit (Promega, Madison, Wis., USA) with fluorescence at […]. […]
# Akt = assay: Western blot of Akt phosphorylation in VSMC induced by PDGF-BB
# Protocol: (§1) VSMC was washed with PBS and then dissolved in lysis buffer (25 mM Tris HCl, pH 7.4, 25 mM NaCl, 25 mM NaF, 25 mM sodium pyrophosphate, 1 mM sodium vanadate, 2.5 mM EDTA, 2.5 mM EGTA, 0.05% (wt/vol) Triton X-100, 0.5% (wt/vol) SDS, 0.5% (wt/vol) deoxycholate, 0.5% (wt/vol) Nonidet P-40, […], and 1 mM PMSF). The cells were collected and centrifuged at 13,000 rpm for 15 min and the protein concentration of the resulting supernatant was measured by Bradford assay. The proteins were denatured and were subjected to SDS-PAGE and then blotted onto nitrocellulose membranes. The membranes were placed in 5% (w/v) non-fat dry milk in TBS with 0.1% Tween20 (TBS-T) and then placed at room temperature for 3 hrs. The blots were placed at 4° C. along with anti-ERK1/2 or anti-Akt antibodies (Cell signaling Technologh, Berely. Mass., USA) for 16 hrs. The membranes were washed 4 times with TBS-T, added with anti-rabbit IgG antibody conjugated with horseradish peroxidase (1:2,000 diluent) and then placed at room temperature for 1 hr. The immunoreactive bands detected by ECL reagents were developed by Hyperfilm-ECL (Amersham Life Science, Little Chalfont, UK). The bands showing positive responses were quantitated by densitometry and then compared with that of control.
# (§2) In FIG. 1B, it is shown that both U0126 (20 μM) and LY294002 (40 μM) inhibited activities of LDH and MTT induced by PDGF-BB. As a way to investigate the signal transduction pathway involved in VSMC proliferation induced by PDGF-BB, an experiment was conducted to examine whether PDGF-BB activates a relatively lower signal transduction pathway such as ERK1/2 and Akt.
# ERK1/2 = assay: Western blot of ERK1/2 phosphorylation in VSMC induced by PDGF-BB
# Protocol: as §1, §2
smiles,measurement,setting,value
"O=C(/C=C/c1ccc(O)c2c1[C@H](C(=O)O[C@H](Cc1ccc(O)c(O)c1)C(=O)[O-])[C@@H](c1ccc(O)c(O)c1)O2)O[C@H](Cc1ccc(O)c(O)c1)C(=O)[O-].[Mg+2] [LAB, lithospermate B]",VSMC proliferation induced by PDGF-BB,[1],decreased in proportion to the concentration
same,decrease of Akt phosphorylation,"Akt; 30 μM LAB, 20 mM NAC, 40 μM LY294002, 1 h, then PDGF-BB 10 min, FIG. 4C",8 folds
same,phosphorylation of Akt due to PDGF-BB,"Akt; LAB 1, 5, 10, 20, 30 μM for 1 h, PDGF-BB 10 min, FIG. 4B",inhibits
same,"most effective concentration, inhibition of Akt phosphorylation",Akt; PDGF-BB 10 ng/mL,30 µM
same,decrease of ERK1/2 phosphorylation,"ERK1/2; 30 μM LAB, 20 mM NAC, 1 h, then PDGF-BB 10 min, FIG. 5C",0.8 fold
same,phosphorylation of ERK1/2 due to PDGF-BB,"ERK1/2; LAB 1, 5, 10, 20, 30 μM for 1 h, PDGF-BB 10 min, FIG. 5B",inhibits
same,"most effective concentration, inhibition of ERK1/2 phosphorylation",ERK1/2; PDGF-BB 10 ng/mL,30 µM
